Key:
[1] = system: PXR target genes (CYP3A11, GSTA1, MRP2, OATP2); experiment: qPCR analysis of PXR target genes in Pxr-null mice; format: in vivo
human PXR = molecular target: T1, human PXR (Homo sapiens, UniProt O75469); experiment: Cell-based reporter assay, DPX2 (hepG2) cell line, luciferase; conditions: for increase in luciferase activity vs DMSO control: 24 h, DPX2 cells
T1 construct: host or cells: DPX2 (HepG2 derivative)
T1 sequence (O75469 1-434): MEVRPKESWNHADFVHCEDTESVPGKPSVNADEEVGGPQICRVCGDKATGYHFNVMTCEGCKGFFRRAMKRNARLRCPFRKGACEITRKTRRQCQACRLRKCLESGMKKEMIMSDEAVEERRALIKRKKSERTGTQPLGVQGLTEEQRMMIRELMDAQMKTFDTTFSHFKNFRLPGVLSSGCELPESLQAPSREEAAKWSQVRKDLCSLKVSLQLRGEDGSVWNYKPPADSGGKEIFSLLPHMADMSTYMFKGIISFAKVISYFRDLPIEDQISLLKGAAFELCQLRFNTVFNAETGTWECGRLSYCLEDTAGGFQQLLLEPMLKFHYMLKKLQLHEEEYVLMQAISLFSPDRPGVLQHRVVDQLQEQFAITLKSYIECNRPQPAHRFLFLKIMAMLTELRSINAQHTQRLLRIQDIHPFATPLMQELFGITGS
Experimental: A hepG2 cell line (DPX2) with stable expression of recombinant human PXR and a PXR-response element cloned in a luciferase vector was obtained from Puracyp Inc. (Carlsbad, Calif.). […] The cells were seeded according to the distributor's instruction. […] For cell-based reporter assay of nuclear receptors CAR, PPARα, PPARγ, and FXR, HCT116 cells were plated on 24-well plates (5×10^4 cells/well, cultured in DMEM containing 10% FBS), and transfected with the various expression vectors using Fugene transfection reagent (Roche, Indianapolis, Ind.). […] The mouse FXR vector was provided by Dr Christopher J. Sinal. […] A standard dual luciferase assay was used and normalized to a cotransfected control reporter (Promega, Madison, Wis.). Each in vitro assay was repeated at least three times.

[2] = Serum pharmacokinetics of RIF and RIFax in mice (p.o., i.p., i.v.; LC-MS/MS); format: in vivo
Experimental: (§1) The maximum concentration in serum (Cmax) was obtained from the original data. […] Intestinal contents were weighted, and homogenized in methanol (100 mg/ml). The homogenate was centrifuged at 14,000 rpm for 10 min at 4° C.
(§2) The mass spectrometer was operated in the turbo ion spray mode with positive ion detection. The turbo ion spray temperature was maintained at 300° C., and a voltage of 4.8 kV was applied to the sprayer needle. N2 was used as the turbo ion spray and nebulizing gas.

CYP3A4 = conditions: human hepatocytes; cited from earlier work
[3] = Intestinal tract distribution of RIF and RIFax in mice (intestinal contents, LC-MS/MS); format: in vivo; conditions: mice; for intestinal tract concentration compared with RIF: oral treatment
Experimental: as §1, §2

[4] = small intestine, 25 mg/kg/day p.o. 3 days

effect on hepatic PXR target genes ([1]; liver, oral treatment): no significant effect | Intestinal CYP3A11 expression [1, 4]: no significant change | Intestinal GSTA1 mRNA increase [1, 4]: 74% | Intestinal OATP2 mRNA [1, 4]: no significant induction | intestinal MRP2 mRNA [1, 4]: no change | increase in luciferase activity vs DMSO control (human PXR; 1 μM): 2.1 fold | increase in luciferase activity vs DMSO control (human PXR; 10 μM): 6.7 fold | increase in luciferase activity vs DMSO control (human PXR; 100 μM): 25.2 fold | EC50 (human PXR; DPX2 cell line, read-out: EC50 for activation of hPXR): ~20 µM | AUC compared with RIF ([2]; mice, 10 mg/kg i.v.): -low | T1/2 compared with RIF ([2]; mouse, in vivo, iv, 10 mg/kg): ultra-short | Cmax ([2]; mouse, serum, mice, single oral dose 10 mg/kg, read-out: Cmax of serum): 40 nM | concentration in the intestinal tract (intestinal content) ([3]; 10 mg/kg single dose p.o.): up to 150 ug/g | concentration in the intestinal tract (intestinal content), molar ([3]; 10 mg/kg single dose p.o.): about 200 μM | intestinal tract concentration compared with RIF [3]: significantly higher | intestinal tract concentration compared with RIF ([3]; listed as Rifaximin): highly concentrated | concentration in the small intestine (content) ([3]; single oral dose 10 mg/kg): ~160 µg/g | time the small intestine concentration lasted following administration ([3]; single oral dose 10 mg/kg): 9 h
Structure (SMILES): COC1/C=C/OC2(C)Oc3c(C)c(O)c4c(O)c(c5c(nc6cc(C)ccn65)c4c3C2=O)NC(=O)/C(C)=C\C=C\C(C)C(O)C(C)C(O)C(C)C(OC(C)=O)C1C (stereo not shown) [RIFax, 4-Deoxy-4′-methylpyrido[1′,2′-1,2]imidazo[5,4-c]rifamycin SV]
CYP3A4 in a human hepatocyte model (CYP3A4): induction

From patent US20110055943A1, “NOVEL THERAPEUTIC TARGETS IN INFLAMMATORY BOWEL DISEASE” (SALIX PHARMACEUTICALS, LTD., priority 2007, published 2011)
